Source: ChEMBL document CHEMBL3227999, “Synthesis and biological properties of N2-substituted spin-labeled analogues of actinomycin D” (J Med Chem, 1979)
pIC50: −log10 of the molar value. The source made the active and inactive calls. No cut-off for these calls is given here. Numbered stars: 1 amine (or outer) side, 2 acyl side, 3 side chain; on linkers, the order of the positions; unused ones are H or OH. Bridge positions count the residues as written; N and C are the ends. Square brackets hold non-standard residues; d marks the D form. Peptide text beside a SMILES is read from it. I, II: the chains in the order shown. Actinocin(9to1) = Cc1c2oc3c(C)ccc(C(=O)[*:1])c3nc-2c(C(=O)[*:2])c(N)c1=O; NMeV = CN[C@H](C(=O)O)C(C)C; Sar = CNCC(=O)O

Experiments:
Mus musculus [1] = experiment: Toxicity in mouse P388 cells allografted CDF1 mouse assessed as mortality at 0.4 mg/kg, ip administered on day 1, 5 and 9; assay type: organism-based; set-up: dose 0.4 mg/kg, route intraperitoneal; conditions: in vivo
Mus musculus [2] = experiment: Toxicity in mouse P388 cells allografted CDF1 mouse assessed as mortality at 0.27 mg/kg, ip administered on day 1, 5 and 9; assay type: organism-based; set-up: dose 0.27 mg/kg, route intraperitoneal; conditions: in vivo
Mus musculus [3] = experiment: Toxicity in mouse P388 cells allografted CDF1 mouse assessed as weight loss at 0.18 mg/kg, ip administered on day 1, 5 and 9; assay type: organism-based; set-up: dose 0.18 mg/kg, route intraperitoneal; conditions: in vivo
Calf thymus DNA [4] = experiment: Binding affinity to calf thymus DNA at 1 x 10^-5 M after 30 mins by circular dichroism analysis; assay type: nucleic-acid assay; conditions: Bos taurus
Calf thymus DNA [5] = experiment: Binding affinity to calf thymus DNA at 1 x 10^-5 M by thermal denaturation assay; assay type: nucleic-acid assay; conditions: Bos taurus
[6] = biological target: T1, Bacterial DNA-directed RNA polymerase (Bacteria) (UniProt P0A8V2+P0A7Z4+P0A8T7+P0A800); experiment: Inhibition of Escherichia coli DNA-dependent RNA polymerase at 20 ug/ml using calf thymus DNA as primer; assay type: protein-complex assay
T1 sequence (P0A7Z4 whole entry partner): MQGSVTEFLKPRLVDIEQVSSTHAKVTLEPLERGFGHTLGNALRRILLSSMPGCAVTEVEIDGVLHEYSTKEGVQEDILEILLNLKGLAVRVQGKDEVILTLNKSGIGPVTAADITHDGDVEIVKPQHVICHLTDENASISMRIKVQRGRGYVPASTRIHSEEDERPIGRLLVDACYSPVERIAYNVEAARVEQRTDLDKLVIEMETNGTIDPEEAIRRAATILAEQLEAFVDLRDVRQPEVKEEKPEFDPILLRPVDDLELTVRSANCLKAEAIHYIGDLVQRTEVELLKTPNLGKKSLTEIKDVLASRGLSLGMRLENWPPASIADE
T1 sequence (P0A800 2-91 partner limits assumed): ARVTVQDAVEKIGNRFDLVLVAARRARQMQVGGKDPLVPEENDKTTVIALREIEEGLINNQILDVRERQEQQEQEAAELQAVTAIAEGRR
T1 sequence (P0A8T7 whole entry partner): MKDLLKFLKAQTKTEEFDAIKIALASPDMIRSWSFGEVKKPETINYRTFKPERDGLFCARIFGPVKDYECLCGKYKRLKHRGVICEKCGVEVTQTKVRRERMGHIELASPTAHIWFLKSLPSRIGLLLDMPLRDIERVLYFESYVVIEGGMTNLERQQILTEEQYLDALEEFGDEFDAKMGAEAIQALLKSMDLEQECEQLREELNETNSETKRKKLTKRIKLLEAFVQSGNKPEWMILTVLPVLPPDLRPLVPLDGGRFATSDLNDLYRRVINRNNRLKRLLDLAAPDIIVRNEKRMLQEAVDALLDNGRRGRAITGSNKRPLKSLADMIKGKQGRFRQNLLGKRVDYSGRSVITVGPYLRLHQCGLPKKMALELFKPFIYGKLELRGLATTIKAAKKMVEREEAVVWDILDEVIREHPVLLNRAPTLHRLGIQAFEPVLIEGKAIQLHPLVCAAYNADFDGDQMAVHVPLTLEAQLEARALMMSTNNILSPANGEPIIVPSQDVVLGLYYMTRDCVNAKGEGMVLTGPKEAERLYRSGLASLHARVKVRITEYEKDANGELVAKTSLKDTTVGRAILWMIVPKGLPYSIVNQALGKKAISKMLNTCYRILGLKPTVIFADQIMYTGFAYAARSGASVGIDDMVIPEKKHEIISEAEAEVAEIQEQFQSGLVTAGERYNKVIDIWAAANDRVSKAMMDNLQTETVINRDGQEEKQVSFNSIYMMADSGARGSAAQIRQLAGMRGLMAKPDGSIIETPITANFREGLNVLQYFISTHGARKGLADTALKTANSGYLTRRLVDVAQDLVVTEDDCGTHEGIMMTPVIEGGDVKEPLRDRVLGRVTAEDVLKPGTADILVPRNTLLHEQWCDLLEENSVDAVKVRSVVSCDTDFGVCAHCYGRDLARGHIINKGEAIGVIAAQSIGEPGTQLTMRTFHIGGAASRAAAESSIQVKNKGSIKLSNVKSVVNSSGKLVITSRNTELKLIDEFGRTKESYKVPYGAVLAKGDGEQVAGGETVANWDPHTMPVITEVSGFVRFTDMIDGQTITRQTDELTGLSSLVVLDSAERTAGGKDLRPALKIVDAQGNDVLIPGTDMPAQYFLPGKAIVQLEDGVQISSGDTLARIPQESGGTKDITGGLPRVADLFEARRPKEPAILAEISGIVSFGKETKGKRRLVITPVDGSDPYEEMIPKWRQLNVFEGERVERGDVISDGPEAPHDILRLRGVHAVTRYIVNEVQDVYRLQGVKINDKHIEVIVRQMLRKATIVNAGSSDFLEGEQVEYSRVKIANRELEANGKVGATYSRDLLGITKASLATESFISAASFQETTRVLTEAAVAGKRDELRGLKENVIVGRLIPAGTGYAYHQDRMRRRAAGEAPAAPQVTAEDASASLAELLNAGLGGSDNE
T1 sequence (P0A8V2 whole entry): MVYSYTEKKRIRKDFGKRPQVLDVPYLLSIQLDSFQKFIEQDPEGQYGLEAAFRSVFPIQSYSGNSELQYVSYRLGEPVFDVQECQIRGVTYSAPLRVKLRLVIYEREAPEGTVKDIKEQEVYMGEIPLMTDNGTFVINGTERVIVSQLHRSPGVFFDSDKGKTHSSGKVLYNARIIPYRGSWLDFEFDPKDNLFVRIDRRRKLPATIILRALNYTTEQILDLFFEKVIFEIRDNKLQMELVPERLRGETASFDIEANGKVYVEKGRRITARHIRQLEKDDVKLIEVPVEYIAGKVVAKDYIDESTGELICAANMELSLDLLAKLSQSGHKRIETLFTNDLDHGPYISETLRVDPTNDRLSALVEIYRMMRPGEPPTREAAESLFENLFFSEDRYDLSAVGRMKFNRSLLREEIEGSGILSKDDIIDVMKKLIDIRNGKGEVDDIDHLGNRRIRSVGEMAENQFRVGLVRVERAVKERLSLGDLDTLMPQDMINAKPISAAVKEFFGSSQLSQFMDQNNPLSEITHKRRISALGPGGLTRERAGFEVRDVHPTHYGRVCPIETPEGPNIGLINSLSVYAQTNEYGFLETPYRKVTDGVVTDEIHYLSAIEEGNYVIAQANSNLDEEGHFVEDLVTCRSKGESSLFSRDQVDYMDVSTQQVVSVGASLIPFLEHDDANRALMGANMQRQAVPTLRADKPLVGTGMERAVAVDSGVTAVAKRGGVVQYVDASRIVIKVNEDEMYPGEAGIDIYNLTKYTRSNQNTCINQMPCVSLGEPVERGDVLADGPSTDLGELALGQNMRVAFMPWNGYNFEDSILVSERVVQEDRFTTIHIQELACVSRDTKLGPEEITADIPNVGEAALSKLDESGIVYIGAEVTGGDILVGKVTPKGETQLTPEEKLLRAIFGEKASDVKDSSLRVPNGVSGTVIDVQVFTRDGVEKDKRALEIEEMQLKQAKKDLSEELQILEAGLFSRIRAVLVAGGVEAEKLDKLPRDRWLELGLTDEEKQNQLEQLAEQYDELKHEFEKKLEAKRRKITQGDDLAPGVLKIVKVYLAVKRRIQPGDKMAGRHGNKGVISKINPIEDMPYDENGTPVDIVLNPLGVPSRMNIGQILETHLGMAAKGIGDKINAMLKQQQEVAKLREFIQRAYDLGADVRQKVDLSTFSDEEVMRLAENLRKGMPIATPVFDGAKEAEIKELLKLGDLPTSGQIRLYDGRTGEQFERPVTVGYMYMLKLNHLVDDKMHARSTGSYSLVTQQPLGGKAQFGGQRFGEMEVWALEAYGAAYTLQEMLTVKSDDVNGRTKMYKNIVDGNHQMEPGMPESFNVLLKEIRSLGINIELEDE

[7] = biological target: T1, Bacterial DNA-directed RNA polymerase (Bacteria); experiment: Inhibition of Escherichia coli DNA-dependent RNA polymerase at 20 ug/ml using Micrococcus luteus DNA as primer; assay type: protein-complex assay
[8] = biological target: T1, Bacterial DNA-directed RNA polymerase (Bacteria); experiment: Inhibition of Escherichia coli DNA-dependent RNA polymerase at 10 ug/ml using calf thymus DNA as primer; assay type: protein-complex assay
[9] = biological target: T1, Bacterial DNA-directed RNA polymerase (Bacteria); experiment: Inhibition of Escherichia coli DNA-dependent RNA polymerase at 10 ug/ml using Micrococcus luteus DNA as primer; assay type: protein-complex assay
[10] = biological target: T1, Bacterial DNA-directed RNA polymerase (Bacteria); experiment: Inhibition of Escherichia coli DNA-dependent RNA polymerase at 5 ug/ml using calf thymus DNA as primer; assay type: protein-complex assay
[11] = biological target: T1, Bacterial DNA-directed RNA polymerase (Bacteria); experiment: Inhibition of Escherichia coli DNA-dependent RNA polymerase at 5 ug/ml using Micrococcus luteus DNA as primer; assay type: protein-complex assay
[12] = biological target: T1, Bacterial DNA-directed RNA polymerase (Bacteria); experiment: Inhibition of Escherichia coli DNA-dependent RNA polymerase at 2.5 ug/ml using calf thymus DNA as primer; assay type: protein-complex assay
[13] = biological target: T1, Bacterial DNA-directed RNA polymerase (Bacteria); experiment: Inhibition of Escherichia coli DNA-dependent RNA polymerase at 2.5 ug/ml using Micrococcus luteus DNA as primer; assay type: protein-complex assay
[14] = biological target: T1, Bacterial DNA-directed RNA polymerase (Bacteria); experiment: Inhibition of Escherichia coli DNA-dependent RNA polymerase at 1 ug/ml using calf thymus DNA as primer; assay type: protein-complex assay
[15] = biological target: T1, Bacterial DNA-directed RNA polymerase (Bacteria); experiment: Inhibition of Escherichia coli DNA-dependent RNA polymerase at 1 ug/ml using Micrococcus luteus DNA as primer; assay type: protein-complex assay
[16] = biological target: T1, Bacterial DNA-directed RNA polymerase (Bacteria); experiment: Inhibition of Escherichia coli DNA-dependent RNA polymerase at 0.5 ug/ml using calf thymus DNA as primer; assay type: protein-complex assay
[17] = biological target: T1, Bacterial DNA-directed RNA polymerase (Bacteria); experiment: Inhibition of Escherichia coli DNA-dependent RNA polymerase at 0.5 ug/ml using Micrococcus luteus DNA as primer; assay type: protein-complex assay
[18] = biological target: T1, Bacterial DNA-directed RNA polymerase (Bacteria); experiment: Inhibition of Escherichia coli DNA-dependent RNA polymerase at 0.25 ug/ml using calf thymus DNA as primer; assay type: protein-complex assay
[19] = biological target: T1, Bacterial DNA-directed RNA polymerase (Bacteria); experiment: Inhibition of Escherichia coli DNA-dependent RNA polymerase at 0.25 ug/ml using Micrococcus luteus DNA as primer; assay type: protein-complex assay
[20] = biological target: T1, Bacterial DNA-directed RNA polymerase (Bacteria); experiment: Inhibition of Escherichia coli DNA-dependent RNA polymerase at 0.1 ug/ml using calf thymus DNA as primer; assay type: protein-complex assay
[21] = biological target: T1, Bacterial DNA-directed RNA polymerase (Bacteria); experiment: Inhibition of Escherichia coli DNA-dependent RNA polymerase at 0.1 ug/ml using Micrococcus luteus DNA as primer; assay type: protein-complex assay
[22] = biological target: T1, Bacterial DNA-directed RNA polymerase (Bacteria); experiment: Inhibition of Escherichia coli DNA-dependent RNA polymerase at 0.05 ug/ml using calf thymus DNA as primer; assay type: protein-complex assay
[23] = biological target: T1, Bacterial DNA-directed RNA polymerase (Bacteria); experiment: Inhibition of Escherichia coli DNA-dependent RNA polymerase at 0.05 ug/ml using Micrococcus luteus DNA as primer; assay type: protein-complex assay
[24] = biological target: Bacterial DNA-directed RNA polymerase (Bacteria, UniProt P0A7Z4+P0A800+P0A8T7+P0A8V2); experiment: Inhibition of Escherichia coli DNA-dependent RNA polymerase; assay type: protein-complex assay
L1210 [25] = experiment: Cytotoxicity against mouse L1210 cells at 10 ug/ml after 48 hrs; assay type: functional; conditions: L1210, 48 h
L1210 [26] = experiment: Cytotoxicity against mouse L1210 cells at 5 ug/ml after 48 hrs; assay type: functional; conditions: L1210, 48 h
L1210 [27] = experiment: Cytotoxicity against mouse L1210 cells at 1 ug/ml after 48 hrs; assay type: functional; conditions: L1210, 48 h
L1210 [28] = experiment: Cytotoxicity against mouse L1210 cells at 0.5 ug/ml after 48 hrs; assay type: functional; conditions: L1210, 48 h
L1210 [29] = experiment: Cytotoxicity against mouse L1210 cells at 0.1 ug/ml after 48 hrs; assay type: functional; conditions: L1210, 48 h
L1210 [30] = experiment: Cytotoxicity against mouse L1210 cells at 0.05 ug/ml after 48 hrs; assay type: functional; conditions: L1210, 48 h
L1210 [31] = experiment: Cytotoxicity against mouse L1210 cells at 0.01 ug/ml after 48 hrs; assay type: functional; conditions: L1210, 48 h
L1210 [32] = experiment: Cytotoxicity against mouse L1210 cells at 0.001 ug/ml after 48 hrs; assay type: functional; conditions: L1210, 48 h
P388 [33] = experiment: Antitumor activity against mouse P388 cells allografted in CDF1 mouse assessed as survival at 0.6 mg/kg, ip administered on day 1, 5 and 9; assay type: functional; conditions: route intraperitoneal
P388 [34] = experiment: Antitumor activity against mouse P388 cells allografted in CDF1 mouse assessed as survival at 0.4 mg/kg, ip administered on day 1, 5 and 9; assay type: functional; conditions: route intraperitoneal
P388 [35] = experiment: Antitumor activity against mouse P388 cells allografted in CDF1 mouse assessed as survival at 0.27 mg/kg, ip administered on day 1, 5 and 9; assay type: functional; conditions: route intraperitoneal
P388 [36] = experiment: Antitumor activity against mouse P388 cells allografted in CDF1 mouse assessed as survival at 0.18 mg/kg, ip administered on day 1, 5 and 9; assay type: functional; conditions: route intraperitoneal
P388 [37] = experiment: Antitumor activity against mouse P388 cells allografted in CDF1 mouse assessed as survival at 0.12 mg/kg, ip administered on day 1, 5 and 9; assay type: functional; conditions: route intraperitoneal
P388 [38] = experiment: Antitumor activity against mouse P388 cells allografted in CDF1 mouse assessed as survival at 0.08 mg/kg, ip administered on day 1, 5 and 9; assay type: functional; conditions: route intraperitoneal
Mus musculus [39] = experiment: Toxicity in mouse P388 cells allografted CDF1 mouse assessed as mortality at 0.6 mg/kg, ip administered on day 1, 5 and 9; assay type: organism-based; set-up: dose 0.6 mg/kg, route intraperitoneal; conditions: in vivo

Structure (SMILES): Cc1c2oc3c(C)ccc(C(=O)N[C@@H]4C(=O)N[C@H](C(C)C)C(=O)N5CCC[C@H]5C(=O)N(C)CC(=O)N(C)[C@@H](C(C)C)C(=O)O[C@@H]4C)c3nc-2c(C(=O)N[C@@H]2C(=O)N[C@H](C(C)C)C(=O)N3CCC[C@H]3C(=O)N(C)CC(=O)N(C)[C@@H](C(C)C)C(=O)O[C@@H]2C)c(N)c1=O [DACTINOMYCIN] (I: T[dV]P[Sar][NMeV] / II: T[dV]P[Sar][NMeV]; ester I:1-I:C, II:1-II:C; linker I:N-II:N via Actinocin(9to1))
- Activity (Mus musculus [1]): Toxic
- Activity (Mus musculus [2]): Toxic
- Activity (Mus musculus [3]): Toxic
- Activity (Calf thymus DNA [4]): Active
- ΔTm (Calf thymus DNA [5]): 8.7 °C
- inhibition [6]: 100%
- inhibition [7]: 99%
- inhibition [8]: 96%
- inhibition [9]: 99%
- inhibition [10]: 93%
- inhibition [11]: 95%
- inhibition [12]: 89%
- inhibition [13]: 92%
- inhibition [14]: 79%
- inhibition [15]: 72%
- inhibition [16]: 61%
- inhibition [17]: 54%
- inhibition [18]: 62%
- inhibition [19]: 44%
- inhibition [20]: 30%
- inhibition [21]: 16%
- inhibition [22]: 17%
- inhibition [23]: 7%
- pIC50 [24]: 6.80
- inhibition at 10 µg/mL (L1210 [25]): 98%
- inhibition at 5 µg/mL (L1210 [26]): 99%
- inhibition at 1 µg/mL (L1210 [27]): 97%
- inhibition at 0.5 µg/mL (L1210 [28]): 99%
- inhibition at 0.1 µg/mL (L1210 [29]): 78%
- inhibition at 0.05 µg/mL (L1210 [30]): 78%
- inhibition at 0.01 µg/mL (L1210 [31]): 57%
- inhibition at 0.001 µg/mL (L1210 [32]): 51%
- Survival (P388 [33]): 5 days
- T/C (P388 [33]): 48%
- Survival (P388 [34]): 8 days
- T/C (P388 [34]): 76%
- Survival (P388 [35]): 10 days
- T/C (P388 [35]): 95%
- Survival (P388 [36]): 18 days
- T/C (P388 [36]): 171%
- Survival (P388 [37]): 19 days
- T/C (P388 [37]): 181%
- Survival (P388 [38]): 15 days
- T/C (P388 [38]): 143%
- Activity (Mus musculus [39]): Toxic
